Reference: patent publication US20120178765A1, “NOVEL GLUCOKINASE ACTIVATORS AND PROCESSES FOR THE PREPARATION THEREOF” (YUHAN CORPORATION, priority 2009, published 2012)

The compounds below were run against T1, Glucokinase (Homo sapiens, UniProt P35557) (assay: Glucokinase activation assay (NADPH absorbance at 340 nm)). Conditions: glucokinase (ProteinOne Inc.), 5 mM D(+)-glucose, 24° C., 90 minutes.
T1 construct: purchased ProteinOne Inc
T1 sequence (P35557 1-465): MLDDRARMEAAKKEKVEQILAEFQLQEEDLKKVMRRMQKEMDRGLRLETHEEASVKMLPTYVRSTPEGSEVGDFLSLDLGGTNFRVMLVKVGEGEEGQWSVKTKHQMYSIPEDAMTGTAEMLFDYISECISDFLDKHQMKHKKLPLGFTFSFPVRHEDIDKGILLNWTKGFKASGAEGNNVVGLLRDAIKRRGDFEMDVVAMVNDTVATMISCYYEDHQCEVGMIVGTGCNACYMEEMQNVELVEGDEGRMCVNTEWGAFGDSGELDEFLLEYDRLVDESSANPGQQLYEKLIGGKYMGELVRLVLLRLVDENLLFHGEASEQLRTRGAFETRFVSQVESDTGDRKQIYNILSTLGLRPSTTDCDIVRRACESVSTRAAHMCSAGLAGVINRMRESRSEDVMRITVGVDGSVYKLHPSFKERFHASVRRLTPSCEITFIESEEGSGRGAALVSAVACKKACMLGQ
Format: biochemical
Description: The amounts of glucokinase activation were determined by measuring the levels of NADPH (the final metabolite of glucose through glucokinase-mediated phospho-rylation) and then calculating to glucokinase activities.
Glucokinase (ProteinOne Inc.) was added, in the concentration of 100 ng/uL, to a enzyme-reaction medium (25 mM HEPES pH 7, 25 mM KCL, 1 mM MgCl, 5 mM D(+)-glucose, 1 mM ATP, 1 mM NADP, 1 mM DTT, and 2.5 u/mL G6PDH). Each compound in predetermined concentrations was added to the enzyme-reaction medium and then absorbance (First Absorbance) was measured at 340 nm of wavelength. After measuring the first absorbance, each reaction mixture was incubated at 24° C. for 90 minutes and then absorbance (Second Absorbance) was re-measured at 340 nm of wavelength. Using changes between First Absorbance and Second Absorbance, glucokinase activity was calculated. In the calculation, a maximum activity of the test compound (Emax), in comparison to the control group (no treatment of compound) was determined and then EC50 was calculated using the software for statistical analysis “Prism”, based on the activity-changes according to concentrations of the test compounds.
The amounts of glucokinase activation of the compounds of Comparative Examples 1 and 2 were determined, in accordance with the same procedures as in Test Example 1.

Compound | EC50 [nM]
COC[C@H](C)Oc1cc(/C=C/c2ccccc2F)cc(C(=O)Nc2nccs2)c1 (stereo in doubt) [Example 6, 3-[trans-2-(2-fluorophenyl)vinyl]-5-(2-methoxy-(1S)-methyl-ethoxy)-N-(thiazol-2-yl)-benzamide] | 38.5
CCOC(=O)Nc1ccc(CCc2cc(O[C@@H](C)COC)cc(C(=O)Nc3nccs3)c2)cc1 [Example 136, 3-{2-[4-(carbamic acid ethyl ester)phenyl]ethyl}-5-(2-methoxy-(1S)-methyl-ethoxy)-N-(thiazol-2-yl)-benzamide] | 270
3-[2-(2,5-difluorophenyl)ethyl]-5-(2-methoxy-(1S)-methyl-ethoxy)-N-(thiazol-2-yl)-benzamide [Example 86] | 36.6
COC[C@H](C)Oc1cc(/C=C/c2ccccc2Cl)cc(C(=O)Nc2ccn(C)n2)c1 (stereo in doubt) [Example 46, 3-[trans-2-(2-chlorophenyl)vinyl]-5-(2-methoxy-(1S)-methyl-ethoxy)-N-(1-methyl-1H-pyrazol-3-yl)-benzamide] | 149
3-[2-(2-fluorophenyl)ethyl]-5-(2-methoxy-(1S)-methyl-ethoxy)-N-(thiazol-2-yl)-benzamide [Example 84] | 41.6
3-[2-(3,5-dimethoxyphenyl)ethyl]-5-(2-methoxy-(1S)-methyl-ethoxy)-N-(1-methyl-1H-pyrazol-3-yl)-benzamide [Example 99] | 117
3-{2-[4-(2-(thiophen-2-yl)acetylamino)phenyl]ethyl}-5-(2-methoxy-(1S)-methyl-ethoxy)-N-(thiazol-2-yl)-benzamide [Example 143] | 284
3-[trans-2-(2,5-difluorophenyl)vinyl]-5-(2-methoxy-(1S)-methyl-ethoxy)-N-(5-fluorothiazol-2-yl)-benzamide [Example 26] | 46.5
3-[trans-2-(2,4-difluorophenyl)vinyl]-5-(2-methoxy-(1S)-methyl-ethoxy)-N-(1-methyl-1H-pyrazol-3-yl)-benzamide [Example 35] | 109
COC[C@H](C)Oc1cc(/C=C/c2ccccc2[N+](=O)[O-])cc(C(=O)Nc2ccc(C(=O)O)cn2)c1 [Example 74, 3-[trans-2-(2-nitrophenyl)vinyl]-5-(2-methoxy-(1S)-methyl-ethoxy)-N-(nicotinic acid-6-yl)-benzamide] | 296
CCOC(=O)CC(=O)Nc1cccc(CCc2cc(O[C@@H](C)COC)cc(C(=O)Nc3nccs3)c2)c1 [Example 121, 3-{2-[3-(malonamic acid ethyl ester)phenyl]ethyl}-5-(2-methoxy-(1S)-methyl-ethoxy)-N-(thiazol-2-yl)-benzamide] | 170
COC[C@H](C)Oc1cc(CCc2ccccc2F)cc(C(=O)Nc2ccn(C)n2)c1 [Example 94, 3-[2-(2-fluorophenyl)ethyl]-5-(2-methoxy-(1S)-methyl-ethoxy)-N-(1-methyl-1-pyrazol-3-yl)-benzamide] | 217
CC(C)/C=C\c1cc(OC(C)C)cc(C(=O)Nc2ncc(C(=O)O)s2)c1 [Comparative Example 2, reference compound] | 1870
COC[C@H](C)Oc1cc(/C=C/c2ccc(F)cc2)cc(C(=O)Nc2ccc(C(=O)OC)cn2)c1 [Example 65, 3-[trans-2-(4-fluorophenyl)vinyl]-5-(2-methoxy-(1S)-methyl-ethoxy)-N-(nicotinic acid-3-methyl ester-6-yl)-benzamide] | 292
3-{2-[3-(3-methyl-butyrylamino)phenyl]ethyl}-5-(2-methoxy-(1S)-methyl-ethoxy)-N-(thiazol-2-yl)-benzamide [Example 120] | 473
3-[trans-2-(2-nitrophenyl)vinyl]-5-(2-methoxy-(1S)-methyl-ethoxy)-N-(5-fluorothiazol-2-yl)-benzamide [Example 19] | 52.1
COc1cccc(/C=C/c2cc(OCC(C)C)cc(C(=O)Nc3nccs3)c2)c1OC [Example 5, 3-[trans-2-(2,3-dimethoxyphenyl)vinyl]-5-isobutoxy-N-(thiazol-2-yl)-benzamide] | 173
3-[trans-2-(2-methoxyphenyl)vinyl]-5-(2-methoxy-(1S)-methyl-ethoxy)-N-(1-methyl-1 H-pyrazol-3-yl)-benzamide [Example 42] | 115
3-[trans-2-(3,5-dimethoxyphenyl)vinyl]-5-(2-methoxy-(1S)-methyl-ethoxy)-N-(5-fluorothiazol-2-yl)-benzamide [Example 31] | 47.3

Compound | EC50 [nM]
CCOC(=O)Nc1ccccc1CCc1cc(O[C@@H](C)COC)cc(C(=O)Nc2nccs2)c1 [Example 117, 3-{2-[2-(carbamic acid ethyl ester)phenyl]ethyl}-5-(2-methoxy-(1S)-methyl-ethoxy)-N-(thiazol-2-yl)-benzamide] | 229
3-[2-(3-chlorophenyl)ethyl]-5-(2-methoxy-(1S)-methyl-ethoxy)-N-(1-methyl-1H-pyrazol-3-yl)-benzamide [Example 102] | 264
3-[trans-2-(3-fluorophenyl)vinyl]-5-(2-methoxy-(1S)-methyl-ethoxy)-N-(thiazol-2-yl)-benzamide [Example 7] | 48.4
COC[C@H](C)Oc1cc(CCc2ccc(NC(=O)c3ccncc3)cc2)cc(C(=O)Nc2nccs2)c1 [Example 142, 3-[2-(4-isonicotinamidephenyl)ethyl]-5-(2-methoxy-(1S)-methyl-ethoxy)-N-(thiazol-2-yl)-benzamide] | 357
COC[C@H](C)Oc1cc(/C=C/c2cc(OC)cc(OC)c2)cc(C(=O)Nc2ccn(C)n2)c1 (stereo in doubt) [Example 40, 3-[trans-2-(3,5-dimethoxyphenyl)vinyl]-5-(2-methoxy-(1S)-methyl-ethoxy)-N-(1-methyl-1H-pyrazol-3-yl)-benzamide] | 174
3-{2-[4-(4-fluorobenzoylamino)phenyl]ethyl}-5-(2-methoxy-(1S)-methyl-ethoxy)-N-(t hiazol-2-yl)-benzamide [Example 139] | 371
3-[trans-2-(4-fluorophenyl)vinyl]-5-(2-methoxy-(1S)-methyl-ethoxy)-N-(5-fluorothiazol-2-yl)-benzamide [Example 23] | 41.1
CCOC(=O)CC(=O)Nc1ccc(CCc2cc(O[C@@H](C)COC)cc(C(=O)Nc3nccs3)c2)cc1 [Example 135, 3-{2-[4-(malonamic acid ethyl ester)phenyl]ethyl}-5-(2-methoxy-(1S)-methyl-ethoxy)-N-(thiazol-2-yl)-benzamide] | 204
3-[trans-2-(2,6-difluorophenyl)vinyl]-5-(2-methoxy-(1S)-methyl-ethoxy)-N-(pyrazin-2-yl)-benzamide [Example 58] | 212
COC[C@H](C)Oc1cc(CCc2cccc(NC(=O)c3ccncc3)c2)cc(C(=O)Nc2nccs2)c1 [Example 128, 3-[2-(3-isonicotinamidephenyl)ethyl]-5-(2-methoxy-(1S)-methyl-ethoxy)-N-(thiazol-2-yl)-benzamide] | 200
3-[trans-2-(2-methoxyphenyl)vinyl]-5-(2-methoxy-(1S)-methyl-ethoxy)-N-(thiazol-2-yl)-benzamide [Example 16] | 8.4
COc1ccc(/C=C/c2cc(OCC(C)C)cc(C(=O)Nc3nccs3)c2)cc1OC [Example 4, 3-[trans-2-(3,4-dimethoxyphenyl)vinyl]-5-isobutoxy-N-(thiazol-2-yl)-benzamide] | 222
3-[2-(4-acetylaminophenyl)ethyl]-5-(2-methoxy-(1S)-methyl-ethoxy)-N-(thiazol-2-yl)-benzamide [Example 132] | 354
3-[2-(2-methoxyphenyl)ethyl]-5-(2-methoxy-(1S)-methyl-ethoxy)-N-(thiazol-2-yl)-benzamide [Example 89] | 28.4
3-{2-[4-(3,5-dimethoxybenzoylamino)phenyl]ethyl}-5-(2-methoxy-(1S)-methyl-ethoxy)-N-(thiazol-2-yl)-benzamide [Example 141] | 355
COC[C@H](C)Oc1cc(/C=C/c2cccc([N+](=O)[O-])c2)cc(C(=O)Nc2ccc(C(=O)OC)cn2)c1 [Example 63, 3-[trans-2-(3-nitrophenyl)vinyl]-5-(2-methoxy-(1S)-methyl-ethoxy)-N-(nicotinic acid-3-methyl ester-6-yl)-benzamide] | 403
3-[trans-2-(4-bromophenyl)vinyl]-5-(2-methoxy-(1S)-methyl-ethoxy)-N-(pyrazin-2-yl)-benzamide [Example 60] | 397
3-[2-(2,4-difluorophenyl)ethyl]-5-(2-methoxy-(1S)-methyl-ethoxy)-N-(thiazol-2-yl)-benzamide [Example 85] | 9.5
